{"source": "patent US20240352010A1", "about": "“SUBSTITUTED 1,2,4-THIADIAZOLYL NICOTINAMIDES, SALTS OR N-OXIDES THEREOF AND THEIR USE AS HERBICIDALLY ACTIVE SUBSTANCES” (BayerAktiengesellschaft, priority 2021, published 2024)", "system": "Digitaria sanguinalis (DIGSA)", "assay": "Herbicidal post-emergence action, DIGSA", "assay_type": "in vivo", "details": "1280 g/ha, assessed visually after ca. 3 weeks vs untreated controls (Table B12)", "text": "Seeds of mono- and dicotyledonous weed plants were sown in plastic pots (double sowings with one species of mono- and one species of dicotyledonous weed plants per pot), in sandy loam, covered with soil and grown under controlled growth conditions. 2 to 3 weeks after sowing, the test plants were sprayed in the single-leaf stage. The compounds according to the invention, formulated in the form of wettable powders (WP) or as emulsifiable concentrates (EC), were sprayed onto the green plant parts as an aqueous suspension or as an emulsion, with the addition of 0.5% of an additive, at an application rate of 600 litres of water per hectare (converted). The test plants were placed in the greenhouse for ca. 3 weeks under optimum growth conditions, and then the effect of the preparations is assessed visually in comparison with untreated controls (herbicidal effect in percent (%): 100% effect=plants have died, 0% effect=as control plants)."}
{"smiles": "O=C(Nc1ncns1)c1c(C2CC2)ccnc1F", "note": "[Example I-005]", "values": [{"measurement": "herbicidal effect in percent, DIGSA", "result": 100, "unit": "%"}]}
